Key:
[1] = test system: Green Peach Aphid (Myzus persicae) (MYZUPE); assay: Bioassays on Green Peach Aphid (GPA), foliar spray on cabbage seedlings; format: in vivo; details: 72 h, 200 ppm foliar spray on cabbage seedlings, graded after three days, Abbott-corrected % control, read-out: MYZUPE % Ctrl @ 200 ppm
Procedure: Certain molecules disclosed in this document were tested against GPA using procedures described in the following example. In the reporting of the results, the “Table 3: GPA (MYZUPE) and sweetpotato whitefly-crawler (BEMITA) Rating Table” was used (See Table Section).
Cabbage seedlings grown in 3-inch pots, with 2-3 small (3-5 cm) true leaves, were used as test substrate. The seedlings were infested with 20-50 GPA (wingless adult and nymph stages) one day prior to chemical application. Four pots with individual seedlings were used for each treatment. Test compounds (2 mg) were dissolved in 2 mL of acetone/methanol (1:1) solvent, forming stock solutions of 1000 ppm test compound. The stock solutions were diluted 5× with 0.025% Tween 20 in H2O to obtain the solution at 200 ppm test compound. A hand-held aspirator-type sprayer was used for spraying a solution to both sides of […] leaves until runoff. Reference plants (solvent check) were sprayed with the diluent only containing 20% by volume of acetone/methanol (1:1) solvent. Treated plants were held in a holding room for three days at approximately 25° C. and ambient relative humidity (RH) prior to grading. […] Percent Control was measured by using Abbott's correction formula (W. S. Abbott, “A Method of Computing the Effectiveness of an Insecticide” J. Econ. Entomol. 18 (1925), pp. 265-267) as follows. […]

[2] = test system: Sweetpotato Whitefly-Crawler (Bemisia tabaci) (BEMITA); assay: Insecticidal test for sweetpotato whitefly-crawler in foliar spray assay on cotton plants; format: in vivo; details: 200 ppm foliar spray on cotton plants, graded after 8-9 days, Abbott-corrected % control, read-out: BEMITA % Ctrl @ 200 ppm
Procedure: Cotton plants grown in 3-inch pots, with 1 small (3-5 cm) true leaf, were used as test substrate. The plants were placed in a room with whitefly adults. Adults were allowed to deposit eggs for 2-3 days. After a 2-3 day egg-laying period, plants were taken from the adult whitefly room. Adults were blown off leaves using a hand-held Devilbiss sprayer (23 psi). Plants with egg infestation (100-300 eggs per plant) were placed in a holding room for 5-6 days at 82° F. and 50% RH for egg hatch and crawler stage to develop. Four cotton plants were used for each treatment. Compounds (2 mg) were dissolved in 1 mL of acetone solvent, forming stock solutions of 2000 ppm. The stock solutions were diluted 10× with 0.025% Tween 20 in H2O to obtain a test solution at 200 ppm. A hand-held Devilbiss sprayer was used for spraying a solution to both sides of cotton leaf until runoff. Reference plants (solvent check) were sprayed with the diluent only. Treated plants were held in a holding room for 8-9 days at approximately 82° F. and 50% RH prior to grading. Evaluation was conducted by counting the number of live nymphs per plant under a microscope. Insecticidal activity was measured by using Abbott's correction formula and presented in “Table 4. Biological Data for GPA (MYZUPE) and sweetpotato whitefly-crawler (BEMITA)” (see column “BEMITA”): […]

C#CCN(C(=O)CCSC)n1cc(-c2cccnc2)nc1C [Compound 42]
inhibition at 200 ppm [1]: 0 to 80%
inhibition at 200 ppm [2]: 80 to 100%

— patent publication US20140296068A1, “PESTICIDAL COMPOSITIONS AND PROCESSES RELATED THERETO” (Dow AgroSciences LLC, priority 2011, published 2014)
